Results from article PMC3125149, “SCYX-7158, an Orally-Active Benzoxaborole for the Treatment of Stage 2 Human African Trypanosomiasis” (PLoS Neglected Tropical Diseases, 2011).
Where two headings read alike, the source gives them in different places.

Tests used:
[1] = Tolerability in mice during efficacy studies; assay type: in vivo; details: doses up to 100 mg/kg BID (200 mg/kg/day), highest dose administered
[2] = Plasma protein binding by rapid equilibrium dialysis; assay type: in vitro ADME; details: for fraction unbound at 4 h: read-out: unbound fraction (fu)
Experimental: Binding to human or mouse plasma proteins or mouse brain homogenate was determined by rapid equilibrium dialysis (RED) (Pierce, Rockford, IL) using a 48-well plate-based format according to the manufacturer's instructions. Briefly, test compound at the required concentrations was added to fresh human or mouse plasma (Bioreclamation, Liverpool, NY) or freshly prepared mouse brain homogenate. Duplicate aliquots of each sample were transferred into the sample chambers of the RED devices, and dialysis buffer (BupH PBS) was added to the buffer chambers. The plates were sealed and incubated at 37°C for 4 h. After dialysis, samples collected from the buffer and tissue chambers were treated with ice-cold methanol (3 volumes for plasma, 4 volumes for brain) to precipitate proteins. The treated samples were centrifuged for 10 min at 3×10^3 g at 15°C. The supernatants were assayed for test compound by LC-MS/MS. Calibration standards and quality control samples were prepared in matched matrix and assayed with samples. Values for unbound and bound fractions and mass balance were calculated. Concordance of binding for each batch of plasma was confirmed by assay of warfarin, imipramine and carbamezapine. Acceptance criterion for mass balance was 70–120%.

T. b. brucei = assay: Effect of serum on trypanocidal activity; assay type: cell-based; details: 25% mouse serum or 50% bovine serum
Experimental: Compounds to be tested were serially diluted in DMSO and added to 96-well plates to give final concentrations ranging from 5 to 0.01 µg/mL. T. b. brucei parasites in the log phase of growth were diluted in HMI-9 media and added to each well for a final concentration of 1×10^4 parasites per well. For the sensitivity assays using T. b. rhodesiense and T. b. gambiense, pararasites were cultured in MEM supplemented with Baltz components (8), diluted in the aforementioned culture media, and added to each well at a density of 1×10^3 cells/well. The final concentration of DMSO was 0.5% and the total volume was 100 µL/well. After a 72 h incubation, resazurin (Sigma-Aldrich, St. Louis, MO) was added to each well [20 µL of 25 mg/100 mL stock in phosphate buffered saline (PBS)] and incubated for an additional 4–6 h.[22] To assess cell viability, fluorescence was quantified using an EnVision Multilabel Plate Reader (Perkin Elmer, Waltham, MA) at an excitation wavelength of 530 nm and emission of 590 nm. Triplicate data points were averaged to generate sigmoidal dose-response curves and determine IC50 values using XLfit curve fitting software from IDBS (Guilford, UK). The IC50 is defined as the amount of compound required to decrease parasite or cell viability by 50% compared to those grown in the absence of the test compound. […]

[3] = Pharmacokinetics in uninfected rats; assay type: in vivo, rat; details: male, Sprague-Dawley, rat
Experimental: The blood distribution, CNS disposition and pharmacokinetics of SCYX-7158 were evaluated in infected or non-infected rodents following intravenous or oral administration of compounds. Pharmacokinetics and bioavailability of SCYX-7158 were also evaluated in non-infected beagle dogs and cynomolgus monkeys. In-life phases of non-infected rodent studies were performed at Vivisource (Waltham, MA); studies in non-naïve cynomolgus monkeys were performed by SNBL USA (Everett, WA). Male CD-1 mice (∼25 g), male Sprague-Dawley rats (∼225 g), or male cynomolgus monkeys (∼3–5 kg) were administered test article by either bolus intravenous injection (IV) or oral gavage. Animals in the IV groups received a single 2 mg/kg IV dose. Animals received oral doses of test articles as either single or twice daily doses ranging from 8 mg/kg to 50 mg/kg. All doses were administered as clear colorless solutions in either 50% (v/v) PEG 400: 20% (v/v) ethanol: 30% (v/v) carboxymethylcellulose (0.5% w/v in sterile water for injection) or 2% (v/v) ethanol: 5% (w/v) dextrose in sterile water for injection. […] For pharmacokinetic analysis, blood samples were collected from mice via cardiac puncture under terminal anaesthesia. Serial blood samples were collected from rats via a vascular access port located in the lateral saphenous vein. Mice and rats were euthanized in a CO2 chamber before collection of terminal blood samples or brain tissue. Blood samples were collected into polypropylene tubes containing K2EDTA anticoagulant and stored on ice until centrifuged for the preparation of plasma. Plasma was stored at −70°C. Whole brains were collected following decapitation, blotted dry, placed into polypropylene containers and then immediately frozen at approximately −70°C. CSF was collected from rats via cisterna magna puncture, placed in sterile polypropylene tubes, and stored at approximately −70°C. […] Treated samples were gently mixed at room temperature for 10 min, and then centrifuged at approximately 3000×g for 15 min at 15°C. The supernatants were transferred to 96-well plates or HPLC vials for analysis by LC-MS/MS. Pharmacokinetic parameters were calculated from composite mean plasma or tissue data using non-compartmental (oral and intravenous routes) and bi-exponential (intravenous route) analyses in Microsoft Excel.

CC1(C)OB(O)c2cc(NC(=O)c3ccc(F)cc3C(F)(F)F)ccc21 [SCYX-7158]
tolerability [1]: well tolerated
fraction unbound at 4 h, 1 µg/mL ([2]; human plasma): 0.013
fraction unbound at 4 h, 50 µg/mL ([2]; human plasma): 0.055
fraction unbound at 4 h ([2]; mouse, mouse plasma at the MIC (∼0.6 µg/mL)): 0.003
fraction unbound at 4 h ([2]; mouse, mouse plasma at ∼15 µg/mL (Cmax at steady-state)): 0.032
fraction unbound at 4 h, 1 µg/mL ([2]; mouse, mouse plasma): 0.0032
fraction unbound at 4 h, 50 µg/mL ([2]; mouse, mouse plasma): 0.0463
attenuation of in vitro IC50 (T. b. brucei): 3–4 fold
Kp ([3]; brain/plasma, 25 mg/kg oral, read-out: brain to plasma AUC0–24 h ratio): 0.44
CL/F ([3]; plasma, 25 mg/kg oral): 1.53 mL/min/kg
Cmax ([3]; 25 mg/kg oral (nominal), plasma, read-out: Cmax): 18200 ng/mL
AUC(0-t) ([3]; 25 mg/kg oral, CSF, read-out: AUC0–24 h in the CSF): 14.6 µg·h/mL
Cmax ([3]; 25 mg/kg oral, CSF, read-out: Cmax in the CSF): 1080 ng/mL
AUC(0-t) ([3]; 25 mg/kg oral, brain, read-out: AUC0–24 h in the brain): 129 µg·h/mL
Cmax ([3]; 25 mg/kg oral, brain, read-out: Cmax in the brain): 8500 ng/mL
Tmax ([3]; 25 mg/kg oral, plasma): 8 h
AUC(0-t) ([3]; 25 mg/kg oral, plasma, read-out: AUC0–24 h): 291 µg·h/mL
Cmax ([3]; oral dose of 10 mg/kg SCYX-7158, plasma, read-out: Cmax): 14300 ng/mL
